In US20130225548A1, “Pyridine Derivative and Medicinal Agent” (NIPPON SHINYAKU CO., LTD., priority 2010, published 2013):
Structures can show the parent of a compound that is named as a salt.

Target: T1, Syk tyrosine kinase (Homo sapiens, UniProt P43405)
T1 construct: purchased Carna Biosciences, Inc
Assay: Test for Syk tyrosine kinase inhibitory activity (ELISA)
Assay type: biochemical
Conditions: Syk tyrosine kinase (Carna Biosciences), 25 μM ATP in substrate solution, 30° C. 1 hour, n=2; read-out: Evaluation (IC50, concentration inhibiting the tyrosine kinase activity at 50%)
Method in brief: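 Syk kinase (0.025 nM stock before addition) with 625 nM biotinylated peptide and 25 μM ATP (substrate-solution levels) in Tris pH 7.5, MgCl2, DTT; 1 h at 30 °C on streptavidin plates. Phosphotyrosine detected by HRP anti-pTyr antibody, TMB, A450; IC50 by non-linear regression.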

Structure (SMILES) | IC50 [nM]
N#Cc1ccnc(Nc2cc(C3CC3)cc(-c3ccc4ncn([C@H]5CC[C@H](C#N)CC5)c4c3)n2)c1 [Example 176, 2-({6-[1-(trans-4-cyanocyclohexyl)-1H-benzimidazol-6-yl]-4-cyclopropylpyridin-2-yl}amino)pyridine-4-carbonitrile hydrochloride] | 5 to 50
N#Cc1ccnc(Nc2cc(C3CC3)cc(-c3cnc(N4CCS(=O)(=O)CC4)c(F)c3)n2)c1 [Example 177, 2-{[4-cyclopropyl-6′-(1,1-dioxidethiomorpholin-4-yl)-5′-fluoro-2,3′-bipyridin-6-yl]amino}pyridine-4-carbonitrile hydrochloride] | 5 to 50
